Measurements taken from patent US4255183A, “Substituted phenyl urea and herbicides for use in paddy field” (Hokko Chemical Industry Co., Ltd., priority 1977, dated 1981).
Like-named read-outs stand apart in the source and are kept apart here.

How the values were obtained:
[1] = tested on: paddy rice; assay: Test Example 1: pot test on selectivity, inhibition of paddy rice; format: in vivo; conditions: for inhibition at 750 g/ha / inhibition at 1500 g/ha / inhibition at 3000 g/ha / inhibition at 6000 g/ha / inhibition at 9000 g/ha: Oryza sativa, 720 h; for selectivity between Echinochloa crus-galli var. oryzicola and paddy rice: in vivo
Experimental: In a Wagner pot of 1/500 are, paddy field soil (alluvial soil) was placed and 50 seeds of Echinochloa crus-galli var. oryzicola and 30 seeds of paddy rice were seeded in the surface layer of said soil and the submerging depth was kept at about 1 cm. […] After 30 days from the treatment with the chemical, dry weights of Echinochloa crus-galli var. oryzicola and paddy rice were measured and the inhibition rate was calculated with reference to untreated area. [formula]
(§1) The comparative chemicals used, i.e. DCMU and Linuron, were those commercially available, and the comparative chemicals A and B used were prepared according to the process for formulating the compound of this invention.

[2] = tested on: paddy rice; assay: Test Example 5: Wagner pot test, chemical injury on paddy rice; format: in vivo, paddy rice (Asahi species); also: key: 5: Completely killed; 4: Considerably injured; 3: Moderately injured; 2: A little injured; 1: Slightly injured; 0: Not injured
Experimental: (§2) In a 1/7500 are Wagner pot, sieved paddy field soil (alluvial soil) was charged. Thereafter, in the center portion of the pot, 2 roots of paddy rice (Asahi species) at the 2- to 3-leaf stage were transplanted and 20 seeds of Bulrush per pot were seeded in the surface of the above soil. The pot was submerged at the depth of about 2 cm. The other Dopatrium junceum and umbrella plant were generated naturally. After seeding, when each of the weeds reached the same leaf age as defined in Table 5 given herein, a predetermined concentration of the emulsion prepared according to Example 4 was applied dropwise on the surface of the pot. The test was carried out by repeating the same test three times per area and the results were determined 20 days after the application of the chemicals with regard to the herbicidal effect and chemical injury on paddy rice on the basis of the evaluation index as shown below.
(§3) As the comparative chemicals Molinate, Benthiocarb and DCMU, those commercially available were used.

[3] = tested on: various weeds; conditions: known upland herbicides; cited from earlier work
[4] = tested on: Echinochloa crus-galli var. oryzicola; assay: Test Example 1: pot test on selectivity, inhibition of Echinochloa crus-galli var. oryzicola; format: in vivo; conditions: Echinochloa crus-galli, 720 h
Experimental: In a Wagner pot of 1/500 are, paddy field soil (alluvial soil) was placed and 50 seeds of Echinochloa crus-galli var. oryzicola and 30 seeds of paddy rice were seeded in the surface layer of said soil and the submerging depth was kept at about 1 cm. When Echinochloa crus-galli var. oryzicola reached at the one leaf stage and 5-leaf stage, the emulsion of a predetermined concentration, prepared according to Example 4 was added dropwise. After 30 days from the treatment with the chemical, dry weights of Echinochloa crus-galli var. oryzicola and paddy rice were measured and the inhibition rate was calculated with reference to untreated area. [formula]
as §1

[5] = tested on: Umbrella plant; assay: Test Example 5: Wagner pot test, herbicidal effect on umbrella plant; format: in vivo; conditions: 20 days after application
Experimental: as §2, §3
(§4) In the above table, the inhibition rate was calculated according to the method as described in Test Example 1.

[6] = tested on: Bulrush; assay: Test Example 5: Wagner pot test, herbicidal effect on Bulrush; format: in vivo
Experimental: as §2, §3, §4

[7] = tested on: Dopatrium junceum; assay: Test Example 5: Wagner pot test, herbicidal effect on Dopatrium junceum; format: in vivo
Experimental: as §2, §3, §4

[8] = tested on: paddy rice; conditions: known upland herbicides; cited from earlier work
[9] = read-out: Inhibition (%) by treatment at 1-leaf stage, paddy rice
[10] = read-out: Inhibition (%) by treatment at 5-leaf stage, paddy rice
[11] = 300 g/10a, leaf age 3, 20 days after application
[12] = 600 g/10a, leaf age 3, 20 days after application
[13] = read-out: Inhibition (%) by treatment at 1-leaf stage, E. crus-galli var. oryzicola
[14] = read-out: Inhibition (%) by treatment at 5-leaf stage, E. crus-galli var. oryzicola

| Structure (SMILES) | inhibition at 750 g/ha [1, 9] | inhibition at 1500 g/ha [1, 9] | inhibition at 3000 g/ha [1, 9] | inhibition at 6000 g/ha [1, 9] | inhibition at 9000 g/ha [1, 9] | inhibition at 750 g/ha [1, 10] | inhibition at 1500 g/ha [1, 10] | inhibition at 3000 g/ha [1, 10] | inhibition at 6000 g/ha [1, 10] | inhibition at 9000 g/ha [1, 10] | selectivity between Echinochloa crus-galli var. oryzicola and paddy rice [1] | herbicidal activity against various weeds [3] | inhibition at 750 g/ha [4, 13] | inhibition at 1500 g/ha [4, 13] | inhibition at 3000 g/ha [4, 13] | inhibition at 6000 g/ha [4, 13] | inhibition at 9000 g/ha [4, 13] | inhibition at 750 g/ha [4, 14] | inhibition at 1500 g/ha [4, 14] | inhibition at 3000 g/ha [4, 14] | other results |
| --- | --- | --- | --- | --- | --- | --- | --- | --- | --- | --- | --- | --- | --- | --- | --- | --- | --- | --- | --- | --- | --- |
| CN(C)C(=O)Nc1ccc(Cl)c(Cl)c1 [DCMU, 3-(3,4-dichlorophenyl)-1,1-dimethyl urea] | 92% | 100% | 100% | 100% | 100% | 61% | 100% | 100% | 100% | 100% | kill not only Echinochloa crus-galli var. oryzicola but also paddy rice | strong herbicidal activity | 91% | 100% | 100% | 100% | 100% | 76% | 100% | 100% | Chemical injury on paddy rice ([2]; 300 g/10a, 3 tillers, 20 days after application): 4; Chemical injury on paddy rice [2, 11]: 5; Chemical injury on paddy rice ([2]; 600 g/10a, 3 tillers, 20 days after application): 5; Chemical injury on paddy rice [2, 12]: 5; inhibition at 6000 g/ha [4, 14]: 100%; inhibition at 9000 g/ha [4, 14]: 100%; Weed kill degree, Umbrella plant ([5]; 300 g/10a, leaf age 2 (first group of columns)): 5 (100); Weed kill degree, Umbrella plant ([5]; 300 g/10a, leaf age 2 (second group of columns)): 4-5; Weed kill degree, Umbrella plant ([5]; 600 g/10a, leaf age 2 (first group of columns)): 5 (100); Weed kill degree, Umbrella plant ([5]; 600 g/10a, leaf age 2 (second group of columns)): 5 (100); Weed kill degree, Bulrush [6, 11]: 5 (100); Weed kill degree, Bulrush ([6]; 300 g/10a, leaf age 3-5, 20 days after application): 5 (100); Weed kill degree, Bulrush [6, 12]: 5 (100); Weed kill degree, Bulrush ([6]; 600 g/10a, leaf age 3-5, 20 days after application): 5 (100); Weed kill degree, Dopatrium junceum ([7]; 300 g/10a, leaf age 2, 20 days after application): 5 (100); Weed kill degree, Dopatrium junceum [7, 11]: 5 (100); Weed kill degree, Dopatrium junceum ([7]; 600 g/10a, leaf age 2, 20 days after application): 5 (100); Weed kill degree, Dopatrium junceum [7, 12]: 5 (100); chemical injury to paddy rice [8]: strong chemical injury to paddy rice |
| CON(C)C(=O)Nc1ccc(Cl)c(Cl)c1 [Linuron, 3-(3,4-dichlorophenyl)-1-methoxy-1-methyl urea] | 81% | 100% | 100% | 100% | 100% | 53% | 100% | 100% | 100% | 100% | kill not only Echinochloa crus-galli var. oryzicola but also paddy rice | strong herbicidal activity | 82% | 100% | 100% | 100% | 100% | 72% | 100% | 100% | inhibition at 6000 g/ha [4, 14]: 100%; inhibition at 9000 g/ha [4, 14]: 100%; chemical injury to paddy rice [8]: strong chemical injury to paddy rice |
